Measurements: patent publication US10051857B2, “Formulation component” (SYNGENTA LIMITED, priority 2011, dated 2018)

Assays:
Assay in all cases: Glasshouse adjuvant test with mesotrione (Example 6)
Format in all cases: in vivo
[1] = system: Amaranthus tuberculatus (AMATE); conditions: mesotrione 45 or 90 g/ha, adjuvant 0.2% v/v or none, 200 l/ha; growth stage 13/14; mean over two rates, three replicates, 7, 14 and 21 days
Method: (§1) Compound 1 was tested in a glasshouse against four weed species using the herbicide mesotrione. A 20% w/w stock emulsion of compound 1 was prepared additionally containing 2% w/w Gohsenol® GL03 and 2% w/w Pluronic® PE10500 as surfactants. Using this, an agrochemical composition was prepared containing 0.2% v/v of the adjuvant in a track sprayer and was applied at a volume of 200 liters per hectare. Mesotrione was applied at either 45 or 90 grams of pesticide per hectare on each of the weed species. The weed species and their growth stage at spraying were Amaranthus tuberculatus (AMATE; growth stage 13/14), Brachiaria decumbens (BRADE; growth stage 13/14), Digitaria sanguinalis (DIGSA; growth stage 14), and Polygonum convolvulus (POLCO; growth stage 11/11.5).
(§2) Each test was replicated three times. The efficacy of the herbicide was assessed visually and expressed as a percentage of the leaf area killed. Samples were assessed at time periods of 7, 14 and 21 days following application. The results shown in Table 6 below are mean averages over the two rates of mesotrione, three replicates and the three assessment timings, and are compared to the efficacy of mesotrione in absence of adjuvant.

[2] = system: Brachiaria decumbens (BRADE); conditions: mesotrione 45 or 90 g/ha, adjuvant 0.2% v/v or none, 200 l/ha; growth stage 13/14; mean over two rates, three replicates, 7, 14 and 21 days
Method: as §1, §2

[3] = system: Digitaria sanguinalis (DIGSA); conditions: mesotrione 45 or 90 g/ha, adjuvant 0.2% v/v or none, 200 l/ha; growth stage 14; mean over two rates, three replicates, 7, 14 and 21 days
Method: as §1, §2

[4] = system: Polygonum convolvulus (POLCO); conditions: mesotrione 45 or 90 g/ha, adjuvant 0.2% v/v or none, 200 l/ha; growth stage 11/11.5; mean over two rates, three replicates, 7, 14 and 21 days
Method: as §1, §2

## CCN(CC)C(=O)c1cccc(C)c1 [Compound 1, N, N-diethyl-3-methylbenzamide]
[1]
  Mean percentage kill AMATE: 71.7%
[2]
  Mean percentage kill BRADE: 28.9%
[3]
  Mean percentage kill DIGSA: 28.6%
[4]
  Mean percentage kill POLCO: 87.2%
